# In patent US6083940A, “Method and composition for effecting contraception in a mammalian male” (SRI International, priority 1998, dated 2000):
# Entries after “also recorded” stand apart in the source; their conditions may differ.
# Tests used:
# [1] = biological target: T1, Rat Prostate Androgen Receptor (Rattus norvegicus, UniProt P15207); assay: Rat Prostate Androgen Receptor Competition Assay; format: binding; settings: for Relative Binding Affinity: 5α-DHT set at 100, conc. of 5αDHT at 50% binding inhibition/conc. competitor at 50% binding inhibition × 100; for Relative androgen receptor binding affinity: Table 3, repeats the values of Table 1; for affinity for the rat prostate androgen receptor compared with other known antiandrogens: in words
# T1 construct: from tissue; host or cells: prostate cytosol (100,000×g supernatant) of gonadectomized male rats
# T1 sequence (P15207 1-902): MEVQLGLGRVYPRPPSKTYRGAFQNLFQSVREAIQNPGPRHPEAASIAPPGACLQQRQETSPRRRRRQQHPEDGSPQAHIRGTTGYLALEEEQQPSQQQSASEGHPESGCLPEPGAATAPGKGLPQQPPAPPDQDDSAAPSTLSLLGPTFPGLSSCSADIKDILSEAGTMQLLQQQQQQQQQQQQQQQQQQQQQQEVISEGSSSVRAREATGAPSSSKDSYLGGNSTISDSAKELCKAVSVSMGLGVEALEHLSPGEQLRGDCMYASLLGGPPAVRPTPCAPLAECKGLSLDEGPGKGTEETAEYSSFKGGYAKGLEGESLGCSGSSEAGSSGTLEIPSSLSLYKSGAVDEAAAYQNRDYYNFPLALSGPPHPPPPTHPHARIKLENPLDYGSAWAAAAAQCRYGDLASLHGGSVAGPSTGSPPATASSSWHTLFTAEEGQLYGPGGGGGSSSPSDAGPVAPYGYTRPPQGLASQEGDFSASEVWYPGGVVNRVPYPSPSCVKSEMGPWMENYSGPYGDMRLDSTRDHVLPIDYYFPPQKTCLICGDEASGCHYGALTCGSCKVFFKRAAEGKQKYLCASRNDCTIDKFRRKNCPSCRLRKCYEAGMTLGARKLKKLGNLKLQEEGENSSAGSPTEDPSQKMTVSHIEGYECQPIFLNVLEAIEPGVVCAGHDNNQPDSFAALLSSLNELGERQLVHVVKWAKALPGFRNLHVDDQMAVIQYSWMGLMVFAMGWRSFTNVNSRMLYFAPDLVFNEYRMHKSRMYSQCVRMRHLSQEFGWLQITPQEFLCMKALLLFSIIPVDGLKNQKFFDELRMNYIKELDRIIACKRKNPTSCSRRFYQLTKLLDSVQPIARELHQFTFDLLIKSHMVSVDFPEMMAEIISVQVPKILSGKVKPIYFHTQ
# Procedure: Male rats were gonadectomized 20-22 hours before killing. The animals were killed by decapitation and exsanguination. Prostates were kept on ice immediately after removal from the animals. After trimming off the fats, prostates were minced and homogenized in 3 volumes of Tris-HCl buffer (0.02 M, pH 7.4 containing 1.5 mM EDTA and 10% glycerol). The homogenate was centrifuged at 10,000×g for 10 minutes, and the resulting supernatant was centrifuged again at 100,000×g for 60 minutes. The final supernatant contained the androgen-binding receptor.
# The mixture was brought up to 1.0 mL with Tris-HCl buffer used for homogenizing the tissue. The mixture was then incubated at 4° C. for 4 hr., with occasional shaking. At the end of incubation, the receptor-bound androgen was isolated by ammonium sulfate precipitation.
# A 70% saturated ammonium sulfate solution was prepared and its pH is adjusted to 7.4 with aqueous NH3. To 1.0 mL of the labeled cytosol, 1.0 mL of the 70% saturated ammonium sulfate was added dropwise with gentle mixing. The sample was let stand at 0-4° C. for 35 minutes, then centrifuged at 10,000×g for 20 minutes. The precipitate was resuspended in 1.0 mL of the above-mentioned Tris-HCl buffer containing 2 mg of bovine albumin. The androgen-receptor complex was immediately reprecipitated by addition of equal volumes of 70% saturated ammonium sulfate. The sample was allowed to stand at 0-4° C. for another 45 minutes, then centrifuged again as outlined above. The supernatant was decanted and the walls of the tubes thoroughly dried with filter paper. The final precipitated protein was resuspended in 1.0 mL of the same buffer and then transferred quantitatively into a counting vial containing 10 mL of Scintisol for counting.
# [2] = test system: 22 day old castrated male rats, seminal vesicle and ventral prostate; assay: standard Hershberger androgenic assay (agonist androgenic activity); format: in vivo, rat; settings: for dose response curves for androgenic activity: 22 day old castrated male rats; for agonist androgenic activity at the therapeutically effective antiandrogenic dose: by extrapolation to 30.0 mg, castrated male rat; for seminal vesicle weight (agonist androgenic activity) / ventral prostate weight (agonist androgenic activity): doses of 0.8 mg, 1.6 mg, and 3.2 mg, versus vehicle alone; for effect of drug dosage on prostate weight (FIG. 1): increasing dose, in words
# [3] = test system: SEX ACCESSORY GLANDS AND TESTES OF 22-DAY OLD CASTRATED MALE RATS; assay: Inhibition of Prostate Growth in Castrated Male Rats (testosterone supplemented); format: in vivo, rat; settings: for In Vivo Percent Inhibition of Ventral Prostate Weight: castrated male rats given supplemental testosterone; for Final BW / Seminal Vesicle weight / Ventral Prostate weight: ten days, mean ± SE; for inhibition of prostate growth stimulated by exogenous testosterone: male castrated rats, in words
# Procedure: Male rats weighing 36 to 38 grams were castrated at the age of 22 days. […] The castrated rats were treated with the steroids once daily for ten consecutive days. On the tenth day following treatment, the rats were sacrificed and autopsied and final seminal vesicle weights and ventral prostate weights determined.
# [4] = test system: rat ventral prostate explant cultures (prostatein C3 mRNA); assay: Measurement of Prostatein C3 mRNA in rat ventral prostate explant culture
# Source text: Testosterone was used as a control. […] Addition of androgens to the medium of rat prostate explant cultures maintains the mRNA for C3 subunit of prostatein, and measurement of either prostatein or its C3 subunit mRNA serves as a sensitive, androgen-responsive marker for the explant system.
# [5] = test system: SEX ACCESSORY GLANDS AND TESTES OF INTACT SPRAGUE-DAWLEY MALE RATS; assay: Effect of Different Doses of Antiandrogen Compound III-1 on Sex Accessory Glands and Testes of Intact Sprague-Dawley Male Rats; format: in vivo, Sprague-Dawley rat; settings: for Body Weight / Epididymus weight / Seminal Vesicle weight / Ventral Prostate weight / Testes weight: N=4, mean ± SE; for Seminal Vesicle weight: P < .005; for Ventral Prostate weight: P < .01
# Source text: The foregoing procedures were used to evaluate the effect of antiandrogen compound III-1 on the sex accessory glands and tests of intact Sprague-Dawley male rats. As may be seen in the Table, […], indicating antagonism on the effect of the testosterone produced.
# ^a Administered subcutaneously once daily for 12 days
# [6] = compound 30.0 mg/day + testosterone propionate 0.6 mg/day
# [7] = dihydrotestosterone 25 nM alone, N=3
# [8] = testosterone propionate 0.6 mg/day alone, N=5
# [9] = III-1 2500 nM with dihydrotestosterone 25 nM, N=2
# [10] = 10 mg/day subcutaneously once daily for 12 days, statistically lower than control
# [11] = 30 mg/day subcutaneously once daily for 12 days, statistically lower than control, P < .001
# [12] = 30 mg/day subcutaneously once daily for 12 days, statistically lower than control
compound,measurement,setting,value
"CCC[C@]1(O)CC[C@H]2[C@@H]3CCC4=CC(=O)CCC4=C3CC[C@@]21C [Compound II-1, 17α-Propylestra-4,9-dien-17β-ol-3-one]",Relative Binding Affinity,[1],5.7
same,Relative androgen receptor binding affinity,[1],5.7
same,affinity for the rat prostate androgen receptor compared with other known antiandrogens,[1],"higher affinity for the androgen rat prostate receptor than all of the other known antiandrogens except cyproterone acetate; also recorded: higher affinity for the rat ventral prostate androgen receptor than the steroidal antiandrogen zanoterone (WIN®49,596); also recorded: higher affinity to the androgen receptor than three other nonsteroidal antiandrogen receptor antagonists flutamide, which is available as an antiandrogen in the United States, nilutamide, developed by Roussel in France, and Casodex® (ICI 176,334)"
same,dose response curves for androgenic activity,[2],Very flat dose response curves
same,agonist androgenic activity at the therapeutically effective antiandrogenic dose,[2],essentially devoid of agonist androgenic activity
same,seminal vesicle weight (agonist androgenic activity),[2],equal to the vehicle alone controls
same,ventral prostate weight (agonist androgenic activity),[2],equal to the vehicle alone controls
same,effect of drug dosage on prostate weight (FIG. 1),[2],"fairly steady prostate weight, even at higher doses"
same,In Vivo Percent Inhibition of Ventral Prostate Weight,[3],18.8 ± 5.74%
same,Final BW,[3]; [6],88 ± 5 g
same,Seminal Vesicle weight,[3]; [6],28.2 ± 2.8 mg
same,Ventral Prostate weight,[3]; [6],45.3 ± 2.5 mg
same,inhibition of prostate growth stimulated by exogenous testosterone,[3],inhibit prostate growth stimulated by exogenous testosterone
"C[C@]12CCC(=O)C[C@@H]1CC[C@@H]1[C@@H]2CC[C@]2(C)[C@@H](O)CC[C@@H]12 [5α-Dihydrotestosterone, reference compound]","C3/28s × 100, percent of dihydrotestosterone",[4]; [7],100%
same,"C3 m-RNA, percent of dihydrotestosterone",[4]; [7],100%
same,C3 m-RNA,"[4]; dihydrotestosterone 25 nM alone, N=3, 30 disks/explant, printed spread ± 32,675","219,371"
same,C3/28s × 100,"[4]; dihydrotestosterone 25 nM alone, N=3, printed spread ± 26.9",148.9
"C[C@]12CC[C@H]3[C@@H](CCC4=CC(=O)CC[C@@]43C)[C@@H]1CC[C@@H]2O [testosterone, reference compound]",effect of drug dosage on prostate weight (FIG. 1),[2],proportionate rise in prostate weight with increasing dose
"CCC(=O)O[C@H]1CC[C@H]2[C@@H]3CCC4=CC(=O)CC[C@]4(C)[C@H]3CC[C@]12C [Testosterone propionate, reference compound]",Final BW,[3]; [8],86 ± 4 g
same,Seminal Vesicle weight,[3]; [8],26.6 ± 34 mg
same,Ventral Prostate weight,[3]; [8],53.4 ± 5.8 mg
"C[C@]12Cc3nonc3C[C@@H]1CC[C@@H]1[C@@H]2CC[C@@]2(C)[C@H]1CC[C@@]21CCCO1 [Compound III-1, 2',3'α-Tetrahydrofuran-2'-spiro-17-(5α-androstan(2,3-c]furazan]","C3/28s × 100, percent of dihydrotestosterone",[4]; [9],62%
same,"C3 m-RNA, percent of dihydrotestosterone",[4]; [9],43%
same,C3 m-RNA,"[4]; III-1 2500 nM with dihydrotestosterone 25 nM, N=2, 30 disks/explant, printed spread ± 1,603","95,130"
same,C3/28s × 100,"[4]; III-1 2500 nM with dihydrotestosterone 25 nM, N=2, printed spread ± 0.8",91.8
same,anti-androgenic activity,"[4]; III-1/dihydrotestosterone formulation, in words",marked anti-androgenic activity
same,Relative Binding Affinity,[1],5.8
same,Relative androgen receptor binding affinity,[1],5.8
same,affinity for the rat prostate androgen receptor compared with other known antiandrogens,[1],"higher affinity for the androgen rat prostate receptor than all of the other known antiandrogens except cyproterone acetate; also recorded: higher affinity for the rat ventral prostate androgen receptor than the steroidal antiandrogen zanoterone (WIN®49,596); also recorded: higher affinity to the androgen receptor than three other nonsteroidal antiandrogen receptor antagonists flutamide, which is available as an antiandrogen in the United States, nilutamide, developed by Roussel in France, and Casodex® (ICI 176,334)"
same,Body Weight,"[5]; 10 mg/day subcutaneously once daily for 12 days, not statistically different from control",295 ± 5 g
same,Epididymus weight,"[5]; 10 mg/day subcutaneously once daily for 12 days, statistically lower than control, P < .001",524 ± 48 mg
same,Seminal Vesicle weight,[5]; [10],225 ± 40 mg
same,Ventral Prostate weight,[5]; [10],170 ± 13 mg
same,Testes weight,"[5]; 10 mg/day subcutaneously once daily for 12 days, statistically lower than control, P < .02",2.552 ± 111 g
same,Epididymus weight,[5]; [11],458 ± 39 mg
same,Testes weight,[5]; [11],1.942 ± .062 g
same,Seminal Vesicle weight,[5]; [12],242 ± 61 mg
same,Ventral Prostate weight,[5]; [12],148 ± 28 mg
same,Body Weight,"[5]; 30 mg/day subcutaneously once daily for 12 days, statistically lower than control, P < .05",277 ± 9 g
same,"magnitude of prostatic growth inhibition, dose dependence","[5]; Table 4, tentative conclusion",appears to be dose dependent
same,dose response curves for androgenic activity,[2],Very flat dose response curves
same,agonist androgenic activity at the therapeutically effective antiandrogenic dose,[2],essentially devoid of agonist androgenic activity
same,seminal vesicle weight (agonist androgenic activity),[2],equal to the vehicle alone controls
same,ventral prostate weight (agonist androgenic activity),[2],equal to the vehicle alone controls
same,effect of drug dosage on prostate weight (FIG. 1),[2],"fairly steady prostate weight, even at higher doses"
same,In Vivo Percent Inhibition of Ventral Prostate Weight,[3],32.2 ± 9.49%
same,Final BW,[3]; [6],89 ± 5 g
same,Seminal Vesicle weight,[3]; [6],22.5 ± 1.1 mg
same,Ventral Prostate weight,[3]; [6],39.5 ± 4.1 mg
same,inhibition of prostate growth stimulated by exogenous testosterone,[3],inhibit prostate growth stimulated by exogenous testosterone
"C#C[C@]1(O)CC[C@H]2[C@@H]3CC[C@H]4Cc5nn(S(C)(=O)=O)cc5C[C@]4(C)[C@H]3CC[C@@]21C [Win 49,596, zanoterone, reference compound]",Relative Binding Affinity,[1],2.2
same,Relative androgen receptor binding affinity,[1],2.2
"CC(=O)O[C@]1(C(C)=O)CC[C@H]2[C@@H]3C=C(Cl)C4=CC(=O)[C@@H]5C[C@@H]5[C@]4(C)[C@H]3CC[C@@]21C [Cyproterone acetate, reference compound]",In Vivo Percent Inhibition of Ventral Prostate Weight,[3],54.3 ± 8.34%
same,Seminal Vesicle weight,[3]; [6],9.8 ± 0.8 mg
same,Ventral Prostate weight,[3]; [6],30.0 ± 3.6 mg
"CC(C)(O)C(=O)Nc1ccc([N+](=O)[O-])c(C(F)(F)F)c1 [Hydroxyflutamide, reference compound]",Relative Binding Affinity,[1],2.6
same,Relative androgen receptor binding affinity,[1],2.6
